Read-outs that look alike come from different tables or passages of the source.
Columns and labels:
thymic cells = assay: ConA-induced proliferation of thymic cells (3H-thymidine uptake); format: in vivo, mice
Description: Materials and Methods: Eighteen (18) to twenty (20) gram (g) male mice, purchased from the Rappolovo Animal Facility, Russia, were used in the studies described below. C57BL/6 (B6) mice were used to evaluate the effect of SCV-07 in non-immunized mice. CBAxC57BL/6 (F1) mice were used for studies of the effects of SCV-07 on the antigen-specific immune response. Mice were kept under the standard animal facility conditions and were provided with a standard diet and water ad libitum. Each treatment group included 4-5 mice. […] A suspension containing filling agents alone, which corresponded to the maximum amount of filling agents in the doses of SCV-07 administered to experimental animals, was used a control. […] Assessment of Mitogen- and Antigen-Induced Proliferation: […] Antigen-specific proliferation was studied by stimulating thymocytes and splenoctyes in vitro with different concentrations of OvA for 96 h. Twenty (20) to twenty-four (24) hours prior to completion of incubation, 3H-labeled thymidine (5 μCi/ml) was added to the cells. The cells were then transferred to fiberglass filters with a Titertek® semi-automatic cell harvester. Thymidine uptake was measured using a RackBeta 1217 (Wallac) liquid scintillation β-counter. For quantitative analysis of proliferation, the stimulation index (SI) was calculated as a ratio of the intensity of label inclusion in the stimulated cells to that in non-stimulated cells.

[1] = test system: IL-10 production by OvA-stimulated splenocytes; assay: OvA-stimulated production of IL-10 by splenocytes of OvA-immunized mice; details: Mus musculus, Splenocyte, po; for activity at 0.0001 mg/kg: 0.1 μg/kg per os; for activity at 0.001 mg/kg: 1.0 μg/kg per os; for activity at 0.01 mg/kg: 10.0 μg/kg per os
Description: The OvA was administered subcutaneously to the crest in a volume of 200 μl. Mice were immunized on day 1 with OvA in complete Freund's adjuvant (CFA; Sigma) and on day 15 with the antigen in incomplete Freund's adjuvant (IFA; Sigma). The immune response was analyzed on day 29. Mice were also immunized with 10 μg/mouse of OvA using Alum as an adjuvant.
Thymuses and spleens from mice of each treatment group were pooled, and then minced with scissors. The minced tissues were suspended in sterile PBS to form cell suspensions, filtered through a double gauze layer and centrifuged. Cells were washed twice with PBS, re-suspended in RPMI-1640 (Sigma) with 2.0 mM of L-glutamine, 50 μM of mercaptoethanol, and 10 μg/ml of gentamycin (complete medium); and cell counts were made. (The splenocyte suspension was washed with a 0.86% solution of NH4Cl to pre-lyse erthrocytes.)
Assessment of Mitogen- and Antigen-Induced Production of Cytokines: Thymic cells (1×10^6/well) in complete medium with 2% FCS were stimulated with ConA (0, 1, and 2 μg/ml). Splenocytes (1×10^6/well) in complete medium with 5% FCS were stimulated with ConA (0, 1, and 5 μg/ml) and with OvA (0-100 μg/ml). […] Supernatants from OvA-stimulated cultures were collected after 72 hours. Supernatants from both cultures were frozen, and kept at 20° C. Concentrations of IL-2, IL-4, IL-10, IL-12R40 and IFNγ in the supernatants were determined by solid-phase EIA with EIA Expansion Kits, available from BD Biosciences (formerly Pharmingen), in accordance with the manufacturer's instructions.

[2] = thymic cells, ConA 1 μg/ml, 0.01 μg/kg Tablet, per os
[3] = thymic cells, ConA 1 μg/ml, 0.01 μg/kg per os
[4] = thymic cells, ConA 1 μg/ml, 0.1 μg/kg Tablet, per os
[5] = thymic cells, ConA 1 μg/ml, 0.1 μg/kg i/p, Table 4
[6] = thymic cells, ConA 1 μg/ml, 0.1 μg/kg i/p, Table 5
[7] = thymic cells, ConA 1 μg/ml, 0.1 μg/kg per os
[8] = thymic cells, ConA 1 μg/ml, 1.0 μg/kg Tablet, per os
[9] = thymic cells, ConA 1 μg/ml, 1.0 μg/kg i/p, Table 4
[10] = thymic cells, ConA 1 μg/ml, 1.0 μg/kg i/p, Table 5
[11] = thymic cells, ConA 1 μg/ml, 1.0 μg/kg per os
[12] = thymic cells, ConA 1 μg/ml, 10.0 μg/kg Tablet, per os
[13] = thymic cells, ConA 1 μg/ml, 10.0 μg/kg per os
[14] = thymic cells, ConA 1 μg/ml, 100.0 μg/kg per os
[15] = read-out: Production of IL-10 by splenocytes, % (% of control), OvA/Alum, OvA 0 μg/ml
[16] = read-out: Production of IL-10 by splenocytes, % (% of control), OvA/Alum, OvA 10 μg/ml
[17] = read-out: Production of IL-10 by splenocytes, % (% of control), OvA/Alum, OvA 25 μg/ml
[18] = read-out: Production of IL-10 by splenocytes, % (% of control), OvA/Alum, OvA 50 μg/ml
[19] = read-out: Production of IL-10 by splenocytes, % (% of control), OvA/Alum, OvA 100 μg/ml
[20] = read-out: Production of IL-10 by splenocytes, % (% of control), OvA/FA, OvA 0 μg/ml
[21] = read-out: Production of IL-10 by splenocytes, % (% of control), OvA/FA, OvA 10 μg/ml
[22] = read-out: Production of IL-10 by splenocytes, % (% of control), OvA/FA, OvA 25 μg/ml
[23] = read-out: Production of IL-10 by splenocytes, % (% of control), OvA/FA, OvA 50 μg/ml
[24] = read-out: Production of IL-10 by splenocytes, % (% of control), OvA/FA, OvA 100 μg/ml

N[C@H](CCC(=O)N[C@@H](Cc1c[nH]c2ccccc12)C(=O)O)C(=O)O [SCV-07, γ-D-glutamyl-L-tryptophan]
minimal dose of SCV-07 given as a crushed tablet which caused significant enhancement of proliferation (thymic cells; crushed tablet per os, ConA 1 μg/ml): 0.1 µg/kg
minimal SCV-07 dose which caused significant increase in proliferation of thymic cells (thymic cells; oral administration, the same as for i/p): 0.1 µg/kg
Spontaneous proliferation (cpm) M ± SD (thymic cells; thymic cells, 0.01 μg/kg Tablet, per os): 308 ± 104 cpm
Spontaneous proliferation (cpm) M ± SD (thymic cells; thymic cells, 0.01 μg/kg per os): 238 ± 64 cpm
Spontaneous proliferation (cpm) M ± SD (thymic cells; thymic cells, 0.1 μg/kg Tablet, per os): 395 ± 136 cpm
Spontaneous proliferation (cpm) M ± SD (thymic cells; thymic cells, 0.1 μg/kg i/p, Table 4): 268 ± 114 cpm
Spontaneous proliferation (cpm) M ± SD (thymic cells; thymic cells, 0.1 μg/kg i/p, Table 5): 251 ± 36 cpm
Spontaneous proliferation (cpm) M ± SD (thymic cells; thymic cells, 0.1 μg/kg per os): 250 ± 75 cpm
Spontaneous proliferation (cpm) M ± SD (thymic cells; thymic cells, 1.0 μg/kg Tablet, per os): 355 ± 62 cpm
Spontaneous proliferation (cpm) M ± SD (thymic cells; thymic cells, 1.0 μg/kg i/p, Table 4): 342 ± 83 cpm
Spontaneous proliferation (cpm) M ± SD (thymic cells; thymic cells, 1.0 μg/kg i/p, Table 5): 555 ± 20 cpm
Spontaneous proliferation (cpm) M ± SD (thymic cells; thymic cells, 1.0 μg/kg per os): 198 ± 44 cpm
Spontaneous proliferation (cpm) M ± SD (thymic cells; thymic cells, 10.0 μg/kg Tablet, per os): 317 ± 77 cpm
Spontaneous proliferation (cpm) M ± SD (thymic cells; thymic cells, 10.0 μg/kg per os): 246 ± 51 cpm
Spontaneous proliferation (cpm) M ± SD (thymic cells; thymic cells, 100.0 μg/kg per os): 272 ± 98 cpm
Induced proliferation (cpm) M ± SD (thymic cells; [2]): 3144 ± 582 cpm
Stimulation index (thymic cells; [2]): 10.2
Induced proliferation (cpm) M ± SD (thymic cells; [3]): 6698 ± 1465 cpm
Stimulation index (thymic cells; [3]): 28.1
Induced proliferation (cpm) M ± SD (thymic cells; [4]): 9900 ± 2021 cpm
Stimulation index (thymic cells; [4]): 25.1
Induced proliferation (cpm) M ± SD (thymic cells; [5]): 14261 ± 1400 cpm
Stimulation index (thymic cells; [5]): 53.3
Induced proliferation (cpm) M ± SD (thymic cells; [6]): 9897 ± 678 cpm
Stimulation index (thymic cells; [6]): 39.4
Induced proliferation (cpm) M ± SD (thymic cells; [7]): 9754 ± 1633 cpm
Stimulation index (thymic cells; [7]): 39.1
Induced proliferation (cpm) M ± SD (thymic cells; [8]): 10248 ± 1913 cpm
Stimulation index (thymic cells; [8]): 28.9
Induced proliferation (cpm) M ± SD (thymic cells; [9]): 20995 ± 6425 cpm
Stimulation index (thymic cells; [9]): 61.4
Induced proliferation (cpm) M ± SD (thymic cells; [10]): 33418 ± 3490 cpm
Stimulation index (thymic cells; [10]): 49.7
Induced proliferation (cpm) M ± SD (thymic cells; [11]): 20658 ± 5873 cpm
Stimulation index (thymic cells; [11]): 104.6
Induced proliferation (cpm) M ± SD (thymic cells; [12]): 7675 ± 1456 cpm
Stimulation index (thymic cells; [12]): 24.2
Induced proliferation (cpm) M ± SD (thymic cells; [13]): 13905 ± 2443 cpm
Stimulation index (thymic cells; [13]): 56.6
Induced proliferation (cpm) M ± SD (thymic cells; [14]): 27589 ± 1331 cpm
Stimulation index (thymic cells; [14]): 101.4
proliferation of cells stimulated by the optimal dose of ConA (thymic cells; thymic cells, per os or i/p, data not shown): did not significantly change
activity at 0.0001 mg/kg [1, 15]: 100%
activity at 0.0001 mg/kg [1, 16]: 118%
activity at 0.0001 mg/kg [1, 17]: 105%
activity at 0.0001 mg/kg [1, 18]: 132%
activity at 0.0001 mg/kg [1, 19]: 129%
activity at 0.001 mg/kg [1, 15]: 100%
activity at 0.001 mg/kg [1, 16]: 128%
activity at 0.001 mg/kg [1, 17]: 112%
activity at 0.001 mg/kg [1, 18]: 110%
activity at 0.001 mg/kg [1, 19]: 109%
activity at 0.01 mg/kg [1, 15]: 100%
activity at 0.01 mg/kg [1, 16]: 138%
activity at 0.01 mg/kg [1, 17]: 156%
activity at 0.01 mg/kg [1, 18]: 197%
activity at 0.01 mg/kg [1, 19]: 218%
activity at 0.0001 mg/kg [1, 20]: 100%
activity at 0.0001 mg/kg [1, 21]: 136%
activity at 0.0001 mg/kg [1, 22]: 210%
activity at 0.0001 mg/kg [1, 23]: 248%
activity at 0.0001 mg/kg [1, 24]: 270%
activity at 0.001 mg/kg [1, 20]: 100%
activity at 0.001 mg/kg [1, 21]: 234%
activity at 0.001 mg/kg [1, 22]: 241%
activity at 0.001 mg/kg [1, 23]: 275%
activity at 0.001 mg/kg [1, 24]: 317%
activity at 0.01 mg/kg [1, 20]: 100%
activity at 0.01 mg/kg [1, 21]: 133%

From patent publication US20090074815A1, “Immunomodulator Compounds as Vaccine Enhancers” (SCICLONE PHARMACEUTICALS, INC., priority 2005, published 2009)
